{"source": "patent US20050090454A1", "about": "“Combination of dehydroepiandrosterone or dehydroepiandrosterone-sulfate with an antihistamine for treatment of asthma or chronic obstructive pulmonary disease” (priority 2003, published 2005)", "key": {"[1]": {"system": "Intracellular adenosine in rat heart, liver, lung and brain", "experiment": "In vivo effect on adenosine levels in rat tissues", "source_text": "Hearts were removed from animals and flash frozen in liquid nitrogen with 10 s of death. Liver and lungs were removed en bloc and flash frozen with 30 s of death. Brain tissue was subsequently dissected."}, "HT-29 SF cells [2]": {"system": "HT-29 SF cells", "experiment": "Reversal of DHEA effect on cell cycle", "type": "cell-based, human", "conditions": "supplement with 25 μM DHEA"}, "HT-29 SF cells [3]": {"system": "HT-29 SF cells", "experiment": "DHEA effect on cell cycle distribution (flow cytometry)", "type": "cell-based, human", "conditions": "25, 50 or 200 μM, 24-72 hours, time- and dose-dependent", "method": "Cultures were trypsinized following 0, 24, 48, or 74 hours and fixed and stained using a modification of a procedure of Bauer et al., Cancer Res. 46, 3173-3178 (1986). Briefly, cells were collected by centrifugation and resuspended in cold phosphate-buffered saline. Cells were fixed in 70% ethanol, washed, and resuspended in phosphate-buffered saline.\nAfter 24, 48, and 72 hours, cells were harvested, fixed in ethanol, and stained with propidium iodide, and the DNA content/cell was determined by flow cytometric analysis. The percentage of cells in G1, S, and G2M phases was calculated using the Cellfit cell cycle analysis program. S phase is marked by a quadrangle for clarity. Representative histograms from duplicate determinations are shown. The experiment was repeated three times."}, "HT-29 SF cells [4]": {"system": "HT-29 SF cells", "experiment": "DHEA effect on cell growth (Coulter counter)", "conditions": "12.5-200 μM, 24-72 hours", "experimental": "Cell cultures, HT-29 SF cells, which represent a subline of HY-29 cells (ATCC, Rockville, Md.) and are adapted for growth in completely defined serum-free PC-1 medium (Ventrex, Portland, Me.), were obtained. Stock cultures were maintained in this medium at 37° C. (in a humidified atmosphere containing 5% CO2)."}, "[5]": {"system": "rat peritoneal mast cells", "experiment": "Histamine secretion after stimulation with compound 48/80", "type": "cell-based", "method": "Freshly isolated rat peritoneal mast cells (2×10^5 cells) were pre-incubated for 5 min at 37° C. in a Balanced Salt Solution containing 150 mM NaCl ([…]), 2.7 mM KCl, 0.9 mM CaCl2, 4 mM Na2HPO4, 2.7 mM KH2PO4, 1.75 mg/ml BSA and 0.1 μg/ml compound 48/80. Thereafter, DHEAS or water (control) are added and the mixture is incubated for 2 min at 37° C.\nFollowing incubation, the mixture is cooled to 4° C. then centrifuged at 4500 rpm for 5 min The supernatant is collected and mixed for 30 min at 4° C. with 5% TCA (trichloroacetic acid) to cause protein precipitation. After centrifugation at 9500×g for 15 min, the supernatant is collected and mixed with 0.25 M HCl. Thereafter, the samples are mixed with 2M NaOH and 0.2% OPT (ortho-phtalaldehyde) and incubated for 30 min at 4° C. in darkness, after which time the reaction is stopped by addition of 0.5 M H2SO4."}, "[6]": {"experiment": "HPLC check of drug degradation during jet milling", "type": "physicochemical", "conditions": "HPLC peak area vs unmilled standard, single- and double-pass", "method": "The chromatographic peak area for the HPLC assay of the unmilled drug standard solution (10 mg/ml) gave a value of 23,427. […] The chromatographic peak areas for vials A and B were 11,979 and 11,677, respectively."}, "[7]": {"experiment": "Solubility of DHEA-S as a function of NaCl and temperature", "type": "physicochemical", "conditions": "for Equilibrium constant Ksp=[DHEA-S−][Na+]: slope of solubility vs reciprocal sodium concentration", "source_text": "Inhalation of pure water can produce a cough stimulus. […] The temperature effect is weaker at high NaCl concentrations."}}, "note": "Where “and” joins values, the source holds several entries; their conditions need not be identical. Equal entries are not always repeated."}
{"smiles": "Nc1nc(=O)c2c([nH]1)NCC(CNc1ccc(C(=O)N[C@@H](CCC(=O)O)C(=O)O)cc1)N2C=O", "note": "(mixture of isomers) [Folinic Acid, Folinic acid]", "values": [{"measurement": "Effect on steroid-mediated adenosine depletion", "setting": "[1]; coadministration with DHEA or methyltestosterone", "value": "completely abrogated steroid-mediated adenosine depletion"}, {"measurement": "Effect on adenosine levels", "setting": "[1]; rat, in vivo", "value": "increase in adenosine levels for all organs studied"}]}
{"smiles": "CC(C)CCC[C@@H](C)[C@H]1CC[C@H]2[C@@H]3CC=C4C[C@@H](O)CC[C@]4(C)[C@H]3CC[C@]12C", "note": "[CH, cholesterol]", "values": [{"measurement": "Prevention of DHEA-induced reduction of cells in S phase", "setting": "HT-29 SF cells [2]; 48 hours", "value": "very little effect"}, {"measurement": "Prevention of DHEA-induced reduction of cells in S phase", "setting": "HT-29 SF cells [2]; 72 hours", "value": "no effect"}]}
{"smiles": "C[C@]12CC[C@H](O)CC1=CC[C@@H]1[C@@H]2CC[C@]2(C)C(=O)CC[C@@H]12", "note": "[DHEA, 3β-hydroxyandrost-5-en-17-one]", "values": [{"measurement": "Effect on cell cycle", "setting": "HT-29 SF cells [3]", "value": "G1 block"}, {"measurement": "Effect on cell growth", "setting": "HT-29 SF cells [4]", "value": "time- and dose-dependent inhibition of growth"}]}
{"smiles": "C[C@]12CC[C@H](OS(=O)(=O)[O-])CC1=CC[C@@H]1[C@@H]2CC[C@]2(C)C(=O)CC[C@@H]12.[Na+]", "note": "[DHEA-S, sodium dehydroepiandrostenone sulfate]", "values": [{"measurement": "Solubility under the assay conditions", "setting": "[5]; at 10^-4 M", "value": "highly limited"}, {"measurement": "EC50", "setting": "[5]; compound 48/80 0.1 μg/ml, 2 min at 37° C., read-out: EC50, inhibition of histamine release", "value": 170, "unit": "nM"}, {"measurement": "Degradation of the drug during jet milling micronization", "setting": "[6]", "value": "no detectable degradation"}, {"measurement": "Estimated DHEA-S concentration in solution", "setting": "[7]; 15° C., 20 mM Na+, Ksp 1316 mM^2, quadratic formula", "value": "27.5 mM and 10.7 mg/mL"}, {"measurement": "Ksp at 15° C.", "setting": "[7]; interpolated versus reciprocal of absolute temperature", "value": "~1316", "unit": "mM^2"}, {"measurement": "Equilibrium constant Ksp=[DHEA-S−][Na+]", "setting": "[7]; refrigerated (7-8° C.)", "value": 665, "unit": "mM2"}, {"measurement": "Equilibrium constant Ksp=[DHEA-S−][Na+]", "setting": "[7]; room temperature (24-25° C.)", "value": 2236, "unit": "mM2"}]}
{"smiles": "C[C@@](O)(CCO)CC(=O)O", "note": "[MVA, mevalonic acid]", "values": [{"measurement": "Prevention of DHEA-induced reduction of cells in S phase", "setting": "HT-29 SF cells [2]; 48 hours", "value": "partially prevented"}, {"measurement": "Prevention of DHEA-induced reduction of cells in S phase", "setting": "HT-29 SF cells [2]; 72 hours", "value": "not after 72 hours"}]}
